Measured values from patent US5488060A, “Substituted thiadiazoles, compositions containing them and their use as antimicrobial and marine antifouling agents” (The Dow Chemical Company, priority 1994, dated 1996).
In brackets after ≈: the same amount, converted by molar mass. Read-outs that look alike come from different tables or passages of the source.

Assays:
Assay type in all cases: cell-based
Bacillus subtilis (Bs) = test: Minimum inhibitory concentration (MIC) in nutrient agar, Bacillus subtilis
Experimental: (§1) The antimicrobial activity of the compounds of the present invention is set forth as the minimum inhibitory concentration (MIC) for the active compounds and is determined for nine (9) bacteria, using nutrient agar, and seven (7) yeast and fungi, using malt yeast agar. This determination is conducted using a one percent solution of the test compound prepared in a mixture of acetone and water.
(§2) Nutrient agar is prepared at pH 6.8, representing a neutral medium, and at pH 8.2, representing an alkaline medium. The nutrient agars are prepared by adding 23 g of nutrient agar to one-liter of deionized water. In addition, the alkaline medium is prepared by adjusting a 0.04M solution of N-[tris-(hydroxymethyl)methyl]glycine buffered deionized water with concentrated sodium hydroxide to a pH of 8.5.
(§3) The test tubes containing the agar are cooled in a water bath until the temperature of the agar is 48° C. Then, an appropriate amount of the one percent solution of the test compound is added (except in the controls where no compound is added) to the respective test tubes so that the final concentrations are 500, […], 100, 50, 25, 10, 5, 2.5, 1.0 and zero parts per million of the test compound in the agar, thus having a known concentration of test compound dispersed therein. The contents of the test tubes are then transferred to respective petri plates. After drying for 24 hours, the petri plates containing nutrient agar are inoculated with bacteria and those containing malt yeast agar are inoculated with yeast and fungi.
(§4) The inoculation with bacteria is accomplished by using the following procedure. Twenty-four hour-cultures of each of the bacteria are prepared by incubating the respective bacteria in tubes containing nutrient broth for 24 hours at 30° C. in a shaker. Dilutions of each of the 24 hour-cultures are made so that nine separate suspensions (one for each of the nine test bacteria) are made, each containing 10^8 colony forming units (CFU) per mL of suspension of a particular bacteria. Aliquots of 0.3 mL of each of the bacterial suspensions are used to fill the individual wells of Steer's Replicator. For each microbial suspension, 0.3 mL was used to fill three wells (i.e., three wells of 0.3 mL each) so that for the nine different bacteria, 27 wells are filled. The Steer's Replicator is then used to inoculate both the neutral and alkaline pH nutrient agar petri plates.
(§5) The inoculated petri plates are incubated at 30° C. for 48 hours and then read to determine if the test compound which is incorporated into the agar prevented growth of the respective bacteria.

Candida albicans (Ca) = test: Minimum inhibitory concentration (MIC) in malt yeast agar, Candida albicans; settings: 48 h, pH 5.5, read-out: Minimum Inhibitory Concentration, Ca
Experimental: as §1
(§6) Malt yeast agar is prepared at pH 5.5 by adding 3 g yeast extract and 45 g malt agar per liter of deionized water. The specific agar is dispensed in 30 mL aliquots into 25×200 mm test tubes, capped and autoclaved for 15 minutes at 115° C.
as §3
(§7) The inoculation with the yeast and fungi is accomplished as follows. Cultures of yeast and fungi are incubated for seven days on malt yeast agar at 30° C. These cultures are used to prepare suspensions by the following procedure. A suspension of each organism is prepared by adding 10 mL of sterile saline and 10 microliters of octylphenoxy polyethoxy ethanol to the agar slant of yeast or fungi. The sterile saline/octylphenoxy potyethoxy ethanol solution is then agitated with a sterile swab to suspend the microorganism grown on the slant. Each resulting suspension is diluted into sterile saline (1 part suspension: 9 parts sterile saline). Aliquots of these dilutions are placed in individual wells of Steer's Replicator and petri plates inoculated as previously described. The petri plates are incubated at 30° C. and read after 48 hours for yeast and 72 hours for fungi.

Escherichia coli (Ec) = test: Minimum inhibitory concentration (MIC) in nutrient agar, Escherichia coli
Experimental: as §1, §2, §3, §4, §5

[1] = tested on: Penicillium chrysogenum (Pc); test: Minimum inhibitory concentration (MIC) in malt yeast agar, Penicillium chrysogenum
Experimental: as §1, §6, §3, §7

[2] = tested on: Pseudomonas aeruginosa (Pa); test: Minimum inhibitory concentration (MIC) in nutrient agar, Pseudomonas aeruginosa; settings: 30° C., 48 hours, read-out: Minimum Inhibitory Concentration, Pa
Experimental: as §1, §2, §3, §4, §5

[3] = tested on: Staphylococcus aureus (Sa); test: Minimum inhibitory concentration (MIC) in nutrient agar, Staphylococcus aureus
Experimental: as §1, §2, §3, §4, §5

[4] = tested on: Klebsiella pneumoniae (Kp); test: Minimum inhibitory concentration (MIC) in nutrient agar, Klebsiella pneumoniae
Experimental: as §1, §2, §3, §4, §5

Aspergillus niger (An) = test: Minimum inhibitory concentration (MIC) in malt yeast agar, Aspergillus niger; settings: pH 5.5; malt yeast agar, 30° C., 72 hours for fungi; read-out: Minimum Inhibitory Concentration, An
Experimental: as §1, §6, §3, §7

[5] = tested on: Saccharomyces cerevisiae (Sc); test: Minimum inhibitory concentration (MIC) in malt yeast agar, Saccharomyces cerevisiae; settings: pH 5.5, malt yeast agar, 30° C., 48 hours for yeast, read-out: Minimum Inhibitory Concentration, SC
Experimental: as §1, §6, §3, §7

[6] = tested on: Aureobasidium pullulan (Ap); test: Minimum inhibitory concentration (MIC) in malt yeast agar, Aureobasidium pullulan
Experimental: as §1, §6, §3, §7

Proteus vulgaris (Pv) = test: Minimum inhibitory concentration (MIC) in nutrient agar, Proteus vulgaris
Experimental: as §1, §2, §3, §4, §5

[7] = tested on: Salmonella choleraesuis (Se); test: Minimum inhibitory concentration (MIC) in nutrient agar, Salmonella choleraesuis; settings: Salmonella enterica
Experimental: as §1, §2, §3, §4, §5

[8] = tested on: Enterobacter aerogenes (Ea); test: Minimum inhibitory concentration (MIC) in nutrient agar, Enterobacter aerogenes; settings: Klebsiella aerogenes
Experimental: as §1, §2, §3, §4, §5

Trichoderma viride (Tv) = test: Minimum inhibitory concentration (MIC) in malt yeast agar, Trichoderma viride; settings: pH 5.5; malt yeast agar, 30° C., 72 hours for fungi; read-out: Minimum Inhibitory Concentration, Tv
Experimental: as §1, §6, §3, §7

Fusarium oxysporum (Fo) = test: Minimum inhibitory concentration (MIC) in malt yeast agar, Fusarium oxysporum
Experimental: as §1, §6, §3, §7

[9] = tested on: Pseudomonas aeruginosa (PRD-10); test: Minimum inhibitory concentration (MIC) in nutrient agar, Pseudomonas aeruginosa PRD-10
Experimental: as §1, §2, §3, §4, §5

[10] = 48 h, pH 6.8, read-out: Minimum Inhibitory Concentration, Ec
[11] = pH 6.8, nutrient agar, 30° C., 48 hours, read-out: Minimum Inhibitory Concentration, Sa
[12] = pH 6.8, nutrient agar, 30° C., 48 hours, read-out: Minimum Inhibitory Concentration, Kp
[13] = 48 h, pH 8.2, read-out: Minimum Inhibitory Concentration, Ea

Structure (SMILES): N#CSc1nsnc1-c1ccc(F)cc1 [Example V, 4-(4-Fluorophenyl)-3-thiocyanato-1,2,5-thiadiazole]
- MIC (Bacillus subtilis (Bs); pH 6.8, nutrient agar, 30° C., 48 hours, read-out: Minimum Inhibitory Concentration, Bs): < 10 µg/mL
- MIC (Bacillus subtilis (Bs); pH 8.2, nutrient agar, 30° C., 48 hours, read-out: Minimum Inhibitory Concentration, Bs): 50 µg/mL (≈ 211 µM)
- MIC (Candida albicans (Ca)): 25 µg/mL (≈ 105 µM)
- MIC (Escherichia coli (Ec); [10]): 50 µg/mL (≈ 211 µM)
- MIC (Escherichia coli (Ec); pH 8.2, nutrient agar, 30° C., 48 hours, read-out: Minimum Inhibitory Concentration, Ec): 250 µg/mL (≈ 1050 µM)
- MIC ([1]; 72 h, pH 5.5, read-out: Minimum Inhibitory Concentration, PC): 2.5 µg/mL (≈ 10.5 µM)
- MIC ([2]; pH 6.8, nutrient agar): 100 µg/mL (≈ 421 µM)
- MIC ([2]; pH 8.2, nutrient agar): 100 µg/mL (≈ 421 µM)
- MIC [3, 11]: 25 µg/mL (≈ 105 µM)
- MIC ([3]; pH 8.2, nutrient agar, 30° C., 48 hours, read-out: Minimum Inhibitory Concentration, Sa): 50 µg/mL (≈ 211 µM)
- MIC [4, 12]: 100 µg/mL (≈ 421 µM)
- MIC ([4]; pH 8.2, nutrient agar, 30° C., 48 hours, read-out: Minimum Inhibitory Concentration, Kp): 100 µg/mL (≈ 421 µM)
- MIC (Aspergillus niger (An)): 5 µg/mL (≈ 21.1 µM)
- MIC [5]: 5 µg/mL (≈ 21.1 µM)
- MIC ([6]; pH 5.5, read-out: Minimum Inhibitory Concentration, Ap): 2.5 µg/mL (≈ 10.5 µM)
- MIC (Proteus vulgaris (Pv); pH 6.8, nutrient agar, 30° C., 48 hours, read-out: Minimum Inhibitory Concentration, Pv): 25 µg/mL (≈ 105 µM)
- MIC (Proteus vulgaris (Pv); pH 8.2, nutrient agar, 30° C., 48 hours, read-out: Minimum Inhibitory Concentration, Pv): 100 µg/mL (≈ 421 µM)
- MIC ([7]; pH 6.8, nutrient agar, 30° C., 48 hours, read-out: Minimum Inhibitory Concentration, SC): 100 µg/mL (≈ 421 µM)
- MIC ([7]; pH 8.2, nutrient agar, 30° C., 48 hours, read-out: Minimum Inhibitory Concentration, SC): 250 µg/mL (≈ 1050 µM)
- MIC [8, 13]: 500 µg/mL (≈ 2110 µM)
- MIC ([8]; pH 6.8, nutrient agar, 30° C., 48 hours, read-out: Minimum Inhibitory Concentration, Ea): 250 µg/mL (≈ 1050 µM)
- MIC (Trichoderma viride (Tv)): 25 µg/mL (≈ 105 µM)
- MIC (Fusarium oxysporum (Fo); pH 5.5, malt yeast agar, 30° C., 72 hours for fungi, read-out: Minimum Inhibitory Concentration, Fo): 10 µg/mL (≈ 42.1 µM)
- MIC ([9]; pH 6.8, nutrient agar, 30° C., 48 hours, read-out: Minimum Inhibitory Concentration, PRD): 250 µg/mL (≈ 1050 µM)
- MIC ([9]; pH 8.2, nutrient agar, 30° C., 48 hours, read-out: Minimum Inhibitory Concentration, PRD): 250 µg/mL (≈ 1050 µM)

Structure (SMILES): COc1ccc(-c2nsnc2SC#N)cc1 [Example VIII, 4-(4-Methoxyphenyl)-3-thiocyanato-1,2,5-thiadiazole]
- MIC (Bacillus subtilis (Bs); 48 h, pH 6.8, read-out: Minimum Inhibitory Concentration, Bs): 100 µg/mL (≈ 401 µM)
- MIC (Bacillus subtilis (Bs); 48 h, pH 8.2, read-out: Minimum Inhibitory Concentration, Bs): > 500 µg/mL
- MIC (Candida albicans (Ca)): 25 µg/mL (≈ 100 µM)
- MIC (Escherichia coli (Ec); [10]): > 500 µg/mL
- MIC (Escherichia coli (Ec); 48 h, pH 8.2, read-out: Minimum Inhibitory Concentration, Ec): > 500 µg/mL
- MIC ([1]; pH 5.5, malt yeast agar, 30° C., 72 hours for fungi, read-out: Minimum Inhibitory Concentration, PC): > 500 µg/mL
- MIC ([2]; pH 6.8, nutrient agar): > 500 µg/mL
- MIC ([2]; pH 8.2, nutrient agar): > 500 µg/mL
- MIC ([3]; 48 h, pH 8.2, read-out: Minimum Inhibitory Concentration, Sa): > 500 µg/mL
- MIC [3, 11]: > 500 µg/mL
- MIC ([4]; 48 h, pH 8.2, read-out: Minimum Inhibitory Concentration, Kp): > 500 µg/mL
- MIC [4, 12]: > 500 µg/mL
- MIC (Aspergillus niger (An)): 100 µg/mL (≈ 401 µM)
- MIC [5]: 9 µg/mL (≈ 36.1 µM)
- MIC ([6]; pH 5.5, malt yeast agar, 30° C., read-out: Minimum Inhibitory Concentration, Ap): 9 µg/mL (≈ 36.1 µM)
- MIC (Proteus vulgaris (Pv); 48 h, pH 6.8, read-out: Minimum Inhibitory Concentration, Pv): > 500 µg/mL
- MIC (Proteus vulgaris (Pv); 48 h, pH 8.2, read-out: Minimum Inhibitory Concentration, Pv): > 500 µg/mL
- MIC ([7]; 48 h, pH 6.8, read-out: Minimum Inhibitory Concentration, SC): > 500 µg/mL
- MIC ([7]; 48 h, pH 8.2, read-out: Minimum Inhibitory Concentration, SC): > 500 µg/mL
- MIC ([8]; 48 h, pH 6.8, read-out: Minimum Inhibitory Concentration, Ea): > 500 µg/mL
- MIC [8, 13]: > 500 µg/mL
- MIC (Trichoderma viride (Tv)): 9 µg/mL (≈ 36.1 µM)
- MIC (Fusarium oxysporum (Fo); 72 h, pH 5.5, read-out: Minimum Inhibitory Concentration, Fo): 50 µg/mL (≈ 201 µM)
- MIC ([9]; 48 h, pH 6.8, read-out: Minimum Inhibitory Concentration, PRD): > 500 µg/mL
- MIC ([9]; 48 h, pH 8.2, read-out: Minimum Inhibitory Concentration, PRD): > 500 µg/mL
